# From paper PMC5227004, “Native ESI Mass Spectrometry Can Help to Avoid Wrong Interpretations from Isothermal Titration Calorimetry in Difficult Situations” (Journal of the American Society for Mass Spectrometry, 2016)
# Legend:
# [1] = molecular target: T1, DNA-polymerase processivity factor (β-ring) from Escherichia coli (Escherichia coli, UniProt P0A988); test: Isothermal titration calorimetry (ITC) of peptide binding to the E. coli β-ring; conditions: βE.coli
# Experimental: We used an iTC200 from Microcal (now Microcal-Malvern, UK) operated in the high-gain mode. […] In short, the β -rings were initially in the cell at concentrations ranging from 20 to 60 μM and the peptides were in the syringe at concentrations ranging from 200 to 600 μM. The buffer was Hepes 10 mM, pH 7.4, supplemented with NaCl 150 mM and EDTA 3 mM. Experiments were performed at different temperatures from 15 to 34 °C.
# The processing of the ITC data was first performed with the same model as the one used for ESI-MS (one specific binding site per monomer). […] The advantage of this still unusual method is of fitting several titration curves with a minimum set of free parameters. All K d values obtained by ITC were corrected for 22.5 °C, which was the incubation temperature used in ESI-MS experiments. This was performed by using the Van’t Hoff equation: ∂ ln K d/∂T = − ΔH/(RT ^2), where ΔH is the variation of enthalpy during complex formation and R = 8.314 J mol^−1 K^−1 the gas constant. Note that such a correction is quite justified for K d values obtained by ITC since the primary output from ITC is precisely the enthalpic term ΔH governing the evolution of K d with the temperature.
# This competition model requires determining a fixed fraction f 1 of the protein monomers binding their ligand according to a dissociation constant K d1 and an enthalpy variation ΔH 1, and a fixed fraction f 2 = 1 − f 1 binding their ligand according to a dissociation constant K d2 and an enthalpy variation ΔH 2 (we consider K d2 < K d1).
# [2] = molecular target: T1, DNA-polymerase processivity factor (β-ring) from Escherichia coli; test: Native ESI-MS titration of peptide binding to the E. coli β-ring; conditions: βE.coli; processing taking into account separately the species R3
# [3] = model with two competing modes of binding on the same site
# T1 sequence (P0A988 whole entry, looked up): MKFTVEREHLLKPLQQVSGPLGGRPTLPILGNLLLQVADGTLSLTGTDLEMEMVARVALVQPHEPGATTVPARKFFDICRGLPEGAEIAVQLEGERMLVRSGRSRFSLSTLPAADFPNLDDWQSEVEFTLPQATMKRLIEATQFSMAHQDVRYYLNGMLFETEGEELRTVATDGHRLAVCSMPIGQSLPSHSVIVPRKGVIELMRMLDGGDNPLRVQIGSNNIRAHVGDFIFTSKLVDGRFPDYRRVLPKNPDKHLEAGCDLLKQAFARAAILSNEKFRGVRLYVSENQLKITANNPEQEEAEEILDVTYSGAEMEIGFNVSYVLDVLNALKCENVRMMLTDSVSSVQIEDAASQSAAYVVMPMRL
smiles,measurement,setting,value
CC(=O)N[C@@H](CCC(N)=O)C(=O)N[C@@H](CC(C)C)C(=O)N[C@@H](CC(=O)O)C(=O)N[C@@H](CC(C)C)C(=O)N[C@@H](Cc1ccccc1)C(=O)O [P6],"ΔH1 (ITC), weaker binding mode",[1]; [3],≈ 1 kcal mol^−1
same,"ΔH2 (ITC), stronger binding mode",[1]; [3],≈ –12 kcal mol^−1
same,"ΔH (ITC), one binding mode","[1]; simple model with one binding mode, at 25 °C",≈ –11.8 ± 0.2 kcal mol^−1
same,"P, probability of GPD (ESI-MS, Equations 4)",[2],0.0528
